The text below walks through data of patent US11708348B2, “Protease inhibitors for treatment of coronavirus infections” (The Scripps Research Institute, priority 2021, dated 2023).

One assay concerns SARS-CoV-2 strain USA-WA1/2020. Put plainly: microbe, parasite or virus in culture. The class given is cell-based. The settings on record: Severe acute respiratory syndrome coronavirus 2, HeLa-ACE2, 24 h, HeLa-ACE2 cells, SARS-CoV-2 infection, 24 h; given as bound; read-out: EC50, uM (Hela).
As a reminder, the EC50 is the concentration giving half of the maximal effect. With `CC1(NC(=O)C(=O)N2C[C@@H]3CCC[C@@H]3[C@H]2C(=O)N[C@H](C[C@@H]2CCNC2=O)C(=O)COC(F)(F)F)CC1` [Compound 495, (1S,3aR,6aS)-2-(2-((1-methylcyclopropyl)-amino)-2-oxoacetyl)-N-((R)-3-oxo-1-((S)-2-oxopyrrolidin-3-yl)-4-(trifluoromethoxy)butan-2-yl)octahydrocyclo-penta[c]pyrrole-1-carboxamide], the EC50 is > 1 µM.

With `CC(C)(F)c1cc(C(=O)N2C=C3C[C@@H]3[C@H]2C(=O)N[C@@H](C[C@@H]2CCNC2=O)C(=O)COC(F)(F)F)no1` [Compound 501, (1S,2S)-3-(5-(2-fluoropropan-2-yl)isoxazole-3-carbonyl)-N-((S)-3-oxo-1-((S)-2-oxopyrrolidin-3-yl)-4-(trifluoromethoxy)butan-2-yl)-3-azabicyclo[3.1.0]hex-4-ene-2-carboxamide], the EC50 is > 1 µM.

Still in this assay, the particulars now being: Severe acute respiratory syndrome coronavirus 2, HeLa-ACE2, 24 h, HeLa-ACE2 cells, SARS-CoV-2 infection, 24 h; read-out: EC50, uM (Hela).
`CC1(C)[C@@H]2[C@@H](C(=O)N[C@@H](C[C@@H]3CCNC3=O)C(=O)COC(F)(F)F)N(C(=O)C(=O)NC3(C(F)(F)F)CC3)C[C@@H]21` [Compound 475, (1R,2S,5S)-6,6-dimethyl-N-((S)-3-oxo-1-((S)-2-oxopyrrolidin-3-yl)-4-(trifluoromethoxy)butan-2-yl)-3-(2-oxo-2-((1-(trifluoromethyl)-cyclopropyl)amino)acetyl)-3-zabicyclo[3.1.0]hexane-2-carboxamide]: the EC50 was 0.05 to 0.2 µM. For `O=C1NCC[C@H]1C[C@H](NC(=O)[C@@H]1[C@H]2CCC[C@H]2CN1C(=O)c1csc(C(F)(F)F)n1)C(=O)COC(F)(F)F` [Compound 476, (1S,3aR,6aS)-N-((S)-3-oxo-1-((S)-2-oxopyrrolidin-3-yl)-4-(trifluoromethoxy)butan-2-yl)-2-(2-(trifluoromethyl)-thiazole-4-carbonyl)-octahydrocyclo-penta[c]pyrrole-1-carboxamide], the EC50 is < 0.05 µM. On the same count and under the same terms, then `CC(C)(F)c1cc(C(=O)N2C[C@H]3[C@@H]([C@H]2C(=O)N[C@@H](C[C@@H]2CCNC2=O)C(=O)COC(F)(F)F)C3(C)C)no1` [Compound 478, (1R,2S,5S)-3-(5-(2-fluoropropan-2-yl)isoxazole-3-carbonyl)-6,6-dimethyl-N-((S)-3-oxo-1-((S)-2-oxopyrrolidin-3-yl)-4-(trifluoromethoxy)butan-2-yl)-3-azabicyclo[3.1.0]hexane-2-carboxamide], with < 0.05 µM; and `O=C(Nc1ccccc1F)C(=O)N1CC2(C[C@H]1C(=O)N[C@@H](C[C@@H]1CCNC1=O)C(=O)COC(F)(F)F)CC2(F)F` (stereo partly drawn) [Compound 482, (6S)-1,1-difluoro-5-(2-((2-fluorophenyl)amino)-2-oxoacetyl)-N-((S)-3-oxo-1-((S)-2-oxopyrrolidin-3-yl)-4-(trifluoromethoxy)butan-2-yl)-5-azaspiro[2.4]heptane-6-carboxamide], with 0.05 to 0.2 µM; and `O=C1NCC[C@H]1C[C@H](NC(=O)[C@@H]1[C@H]2CCC[C@H]2CN1C(=O)c1cc(C(F)(F)F)on1)C(=O)COC(F)(F)F` [Compound 483, (1S,3aR,6aS)-N-((S)-3-oxo-1-((S)-2-oxopyrrolidin-3-yl)-4-(trifluoromethoxy)butan-2-yl)-2-(5-(trifluoromethyl)-isoxazole-3-carbonyl)octahydro-cyclopenta[c]pyrrole-l-carboxamide], with 0.05 to 0.2 µM. In the case of `CC(F)(F)CNC(=O)C(=O)N1C[C@H]2[C@@H]([C@H]1C(=O)N[C@@H](C[C@@H]1CCNC1=O)C(=O)COC(F)(F)F)C2(C)C` [Compound 484, (1R,2S,5S)-3-(2-((2,2-difluoropropyl)amino)-2-oxoacetyl)-6,6-dimethyl-N-((S)-3-oxo-1-((S)-2-oxopyrrolidin-3-yl)-4-(trifluoromethoxy)butan-2-yl)-3-azabicyclo[3.1.0]-hexane-2-carboxamide], the EC50 fell in the range of 0.05 to 0.2 µM. Still for that read-out and setting: then `CC1(C)[C@@H]2[C@@H](C(=O)N[C@@H](C[C@@H]3CCNC3=O)C(=O)COC(F)(F)F)N(C(=O)C(=O)NC34CC(F)(C3)C4)C[C@@H]21` [Compound 486, (1R,2S,5S)-3-(2-((3-fluorobicyclo[1.1.1]-pentan-1-yl)amino)-2-oxoacetyl)-6,6-dimethyl-N-((S)-3-oxo-1-((S)-2-oxopyrrolidin-3-yl)-4-(trifluoromethoxy)butan-2-yl)-3-azabicyclo[3.1.0]-hexane-2-carboxamide], with 0.05 to 0.2 µM; and `CC(C)(NC(=O)C(=O)N1C[C@H]2CCCC[C@H]2C[C@H]1C(=O)N[C@@H](C[C@@H]1CCNC1=O)C(=O)COC(F)(F)F)C(F)(F)F` [Compound 487, (3S,4aS,8aS)-N-((S)-3-oxo-1-((S)-2-oxopyrrolidin-3-yl)-4-(trifluoromethoxy)butan-2-yl)-2-(2-oxo-2-((1,1,1-trifluoro-2-methylpropan-2-yl)amino)acetyl)-decahydroiso-quinoline-3-carboxamide], with 0.05 to 0.2 µM; and `CC1(C)[C@@H]2[C@@H](C(=O)N[C@@H](C[C@@H]3CCNC3=O)C(=O)COC(F)(F)F)N(C(=O)c3cc(C(F)(F)F)no3)C[C@@H]21` [Compound 488, (1R,2S,5S)-6,6-dimethyl-N-((S)-3-oxo-1-((S)-2-oxo-pyrrolidin-3-yl)-4-(trifluoromethoxy)butan-2-yl)-3-(3-(trifluoromethyl)-isoxazole-5-carbonyl)-3-azabicyclo[3.1.0]-hexane-2-carboxamide], with 0.05 to 0.2 µM. Same read-out and setting: then `CC1(C)[C@@H]2[C@@H](C(=O)N[C@@H](C[C@@H]3CCNC3=O)C(=O)COC(F)(F)F)N(C(=O)C(=O)Nc3ccccc3F)C[C@@H]21` [Compound 489, (1R,2S,5S)-3-(2-((2-fluorophenyl)amino)-2-oxoacetyl)-6,6-dimethyl-N-((S)-3-oxo-1-((S)-2-oxopyrrolidin-3-yl)-4-(trifluoromethoxy)butan-2-yl)-3-azabicyclo[3.1.0]-hexane-2-carboxamide], with < 0.05 µM; and `CC(C)(F)c1cc(C(=O)N[C@@H](CC2CC2)C(=O)N[C@@H](C[C@@H]2CCNC2=O)C(=O)COC(F)(F)F)no1` [Compound 490, N-((S)-3-cyclopropyl-1-oxo-1-(((S)-3-oxo-1-((S)-2-oxopyrrolidin-3-yl)-4-(trifluoromethoxy)butan-2-yl)amino)propan-2-yl)-5-(2-fluoropropan-2-yl)isoxazole-3-carboxamide], with < 0.05 µM; and `CC(C)(F)c1cc(C(=O)N2C[C@@H]3CCC[C@@H]3[C@H]2C(=O)N[C@@H](C[C@@H]2CCNC2=O)C(=O)COC(F)(F)F)no1` [Compound 491, (1S,3aR,6aS)-2-(5-(2-fluoropropan-2-yl)isoxazole-3-carbonyl)-N-((S)-3-oxo-1-((S)-2-oxopyrrolidin-3-yl)-4-(trifluoromethoxy)butan-2-yl)octahydrocyclo-penta[c]pyrrole-1-carboxamide], with < 0.05 µM. Same read-out and setting: next, `CC1(C)[C@@H]2[C@@H](C(=O)N[C@H](C[C@@H]3CCNC3=O)C(=O)COC(F)(F)F)N(C(=O)c3cc(C(F)(F)F)no3)C[C@@H]21` [Compound 492, (1R,2S,5S)-6,6-dimethyl-N-((R)-3-oxo-1-((S)-2-oxopyrrolidin-3-yl)-4-(trifluoromethoxy)butan-2-yl)-3-(3-(trifluoromethyl)-isoxazole-5-carbonyl)-3-azabicyclo[3.1.0]-hexane-2-carboxamide]: 0.05 to 0.2 µM; `CC(C)(C)NC(=O)C(=O)N1C[C@@H]2C[C@@H]2[C@H]1C(=O)N[C@@H](C[C@@H]1CCNC1=O)C(=O)COC(F)(F)F` [Compound 493, (1S,2S,5R)-3-(2-(tert-butylamino)-2-oxoacetyl)-N-((S)-3-oxo-1-((S)-2-oxopyrrolidin-3-yl)-4-(trifluoromethoxy)butan-2-yl)-3-azabicyclo[3.1.0]-hexane-2-carboxamide]: 0.2 to 0.5 µM. Turning to `O=C(NC1CC1)C(=O)N1C[C@@H]2CCC[C@@H]2[C@H]1C(=O)N[C@@H](C[C@@H]1CCNC1=O)C(=O)COC(F)(F)F` [Compound 497, (1S,3aR,6aS)-2-(2-(cyclopropylamino)-2-oxoacetyl)-N-((S) -3-oxo-1-((S)-2-oxopyrrolidin-3-yl)-4-(trifluoromethoxy)butan-2-yl)octahydrocyclo-penta[c]pyrrole-1-carboxamide], the concentration giving a half-maximal response (EC50) was in the range of 0.05 to 0.2 µM.

On to `CC(C)(C)NC(=O)C(=O)N1[C@H](C(=O)N[C@@H](C[C@@H]2CCNC2=O)C(=O)COC(F)(F)F)C[C@@H]2CCCC[C@@H]21` [Compound 498, (2S,3aS,7aS)-1-(2-(tert-butylamino)-2-oxoacetyl)-N-((S)-3-oxo-1-((S)-2-oxopyrrolidin-3-yl)-4-(trifluoromethoxy)butan-2-yl)octahydro-1H-indole-2-carboxamide], for which the half-maximal effective concentration (EC50) was 0.05 to 0.2 µM. Regarding `CC(C)(F)c1cc(C(=O)NC(CC2CCOCC2)C(=O)N[C@@H](C[C@@H]2CCNC2=O)C(=O)COC(F)(F)F)no1` (stereo partly drawn) [Compound 499, 5-(2-fluoropropan-2-yl)-N-(l-oxo-1-(((S)-3-oxo-1-((S)-2-oxopyrrolidin-3-yl)-4-(trifluoromethoxy)butan-2-yl)amino)-3-(tetrahydro-2H-pyran-4-yl)propan-2-yl)isoxazole-3-carboxamide], the EC50 is 0.05 to 0.2 µM. Still for that read-out and setting: next, `O=C1NCC[C@H]1C[C@H](NC(=O)[C@@H]1[C@H]2CCC[C@H]2CN1C(=O)c1cc(C(F)F)on1)C(=O)COC(F)(F)F` [Compound 500, (1S,3aR,6aS)-2-(5-(difluoromethyl)-isoxazole-3-carbonyl)-N-((S)-3-oxo-1-((S)-2-oxopyrrolidin-3-yl)-4-(trifluoromethoxy)butan-2-yl)octahydrocyclo-penta[c]pyrrole-1-carboxamide]: < 0.05 µM; `CC(C)(C)NC(=O)C(=O)N1CC2(CC2)C[C@H]1C(=O)N[C@@H](C[C@@H]1CCNC1=O)C(=O)COC(F)(F)F` [Compound 502, (S)-5-(2-(tert-butylamino)-2-oxoacetyl)-N-((S)-3-oxo-1-((S)-2-oxopyrrolidin-3-yl)-4-(trifluoromethoxy)butan-2-yl)-5-azaspiro[2.4]-heptane-6-carboxamide]: < 0.05 µM.
